Here are results for one compound from US4822791A, “Pharmaceutical compositions of-2,2-1,1-[bis-2,2'-(3,1-benzoxazin-4-one)9 ethylenes” (priority 1984, dated 1989).

Assay [1] deals with passive cutaneous anaphylaxis (PCA). Nature of the assay: Anti-passive cutaneous anaphylaxis activity (PCA) in rats (Test Example 9). It is filed as in vivo. The conditions noted are these: Rattus norvegicus, po, 50 mg/kg, 10 animals. Put shortly:
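Antiserum came from Wistar rats sensitized with ovalbumin (aluminium hydroxide plus B. pertussis adjuvant) and bled at day 14. It was diluted 12- and 24-fold and injected into the dorsal skin of naive rats 48 h before challenge.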

The next assay has as its target T1, hyaluronidase (Bos taurus, UniProt Q2YDK3).
T1 sequence (Q2YDK3 36-553): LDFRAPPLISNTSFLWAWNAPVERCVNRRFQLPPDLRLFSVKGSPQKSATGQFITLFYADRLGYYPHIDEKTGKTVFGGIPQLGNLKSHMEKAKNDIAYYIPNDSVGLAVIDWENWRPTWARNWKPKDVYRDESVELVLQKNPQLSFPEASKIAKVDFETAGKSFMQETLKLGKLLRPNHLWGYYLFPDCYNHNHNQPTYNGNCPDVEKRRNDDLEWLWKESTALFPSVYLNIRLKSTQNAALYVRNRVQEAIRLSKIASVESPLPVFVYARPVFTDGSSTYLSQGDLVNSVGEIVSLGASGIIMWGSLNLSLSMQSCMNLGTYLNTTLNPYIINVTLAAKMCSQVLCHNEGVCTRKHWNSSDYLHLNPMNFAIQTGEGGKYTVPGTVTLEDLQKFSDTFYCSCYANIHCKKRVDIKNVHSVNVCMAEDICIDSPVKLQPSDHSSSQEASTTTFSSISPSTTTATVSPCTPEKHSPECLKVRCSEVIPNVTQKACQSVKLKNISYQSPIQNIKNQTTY
Nature of the assay: Anti-hyaluronidase activity (modified Morgan-Elson method). It is filed as biochemical. The conditions noted are these: hyaluronidase 340NF unit/ml; activating agent Compound 48/80 or CaCl2; read-out: IC50.

SMILES strings stand for the structures. Like-named read-outs stand apart in the source and are kept apart here.

Method for hyaluronidase: A buffer soluticn of hyaluronidase (0.1 ml) was taken in a test tube and 0.2 ml each of the buffer solution of various compounds in various concentrations was added, and the mixture was preincubated at 37° C. for 20 minutes. Then, an activating agent (Compound 48/80 or CaCl2) (0.2 ml) was added to make the total amount 0.5 ml, which was incubated at 37° C. for 20 minutes. Then, potassium hyaluronate buffer solution (0.5 ml) was added, and the mixture was incubated at 37° C. for 40 minutes. After cooling, the mixture was treated with aqueous solution of 0.4N NaOH (0.2 ml) and neutralized to stop the reaction. The resulting product was subjecred to measurement of OD585 by the modified Morgan-Elson Method. […] (The final ccncentration of hyaluronidase was 340NF unit/ml.) [formula]

As to `O=C(Nc1ccccc1C(=O)O)C(=Cc1ccccc1)C(=O)Nc1ccccc1C(=O)O` [Compound 11, 2,2'-[(1,3-dioxo-2-phenylmethylene-1,3-propanediyl)diimino]bisbenzoic acid], the inhibition in vivo at 50 mg/kg in assay [1] (read-out: Inhibition, Anti-serum Dilution: × 12) was found to be 20.8%; in assay [1] (read-out: Inhibition, Anti-serum Dilution: × 24) it was 23%. On hyaluronidase, the IC50 was found to be 22 µM.

By IC50 is commonly meant the concentration that inhibits the measured activity by half.
